Experiment [1] addresses Lysine-specific demethylase 4C (Homo sapiens, UniProt Q9H3R0). Description: GASC-1 (JMJD2C) histone demethylase inhibitors, dose response, biochemical, DELFIA europium, cherry-picked samples (AID 488835). Format: functional.
In experiment [2] the target is T1, Tyrosine-protein phosphatase non-receptor type 22 (Homo sapiens, UniProt Q9Y2R2).
T1 sequence (Q9Y2R2 whole entry): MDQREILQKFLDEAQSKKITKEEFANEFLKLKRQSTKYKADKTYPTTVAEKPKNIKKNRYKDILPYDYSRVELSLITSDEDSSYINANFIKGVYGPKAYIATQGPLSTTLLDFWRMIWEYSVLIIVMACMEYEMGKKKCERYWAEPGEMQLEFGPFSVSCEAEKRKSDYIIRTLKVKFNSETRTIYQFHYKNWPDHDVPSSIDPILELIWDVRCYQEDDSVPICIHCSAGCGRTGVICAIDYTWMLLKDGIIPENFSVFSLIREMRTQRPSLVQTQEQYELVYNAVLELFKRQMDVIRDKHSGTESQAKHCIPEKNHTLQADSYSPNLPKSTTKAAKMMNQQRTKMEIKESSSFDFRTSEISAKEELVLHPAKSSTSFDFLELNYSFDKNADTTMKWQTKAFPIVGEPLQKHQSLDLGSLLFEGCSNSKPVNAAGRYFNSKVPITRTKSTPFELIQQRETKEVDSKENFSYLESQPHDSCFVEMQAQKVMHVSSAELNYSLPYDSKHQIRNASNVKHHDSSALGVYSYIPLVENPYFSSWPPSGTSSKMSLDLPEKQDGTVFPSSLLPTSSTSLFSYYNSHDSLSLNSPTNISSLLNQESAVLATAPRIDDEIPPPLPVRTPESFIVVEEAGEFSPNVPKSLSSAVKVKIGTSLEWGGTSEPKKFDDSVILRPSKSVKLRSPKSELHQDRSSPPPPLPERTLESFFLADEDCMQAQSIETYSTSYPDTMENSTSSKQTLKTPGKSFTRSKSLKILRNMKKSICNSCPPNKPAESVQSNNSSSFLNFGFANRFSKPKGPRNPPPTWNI
Format: functional.

Experiment [3] addresses T2, Tyrosine-protein phosphatase non-receptor type 7 (Homo sapiens, UniProt P35236).
T2 sequence (P35236 whole entry): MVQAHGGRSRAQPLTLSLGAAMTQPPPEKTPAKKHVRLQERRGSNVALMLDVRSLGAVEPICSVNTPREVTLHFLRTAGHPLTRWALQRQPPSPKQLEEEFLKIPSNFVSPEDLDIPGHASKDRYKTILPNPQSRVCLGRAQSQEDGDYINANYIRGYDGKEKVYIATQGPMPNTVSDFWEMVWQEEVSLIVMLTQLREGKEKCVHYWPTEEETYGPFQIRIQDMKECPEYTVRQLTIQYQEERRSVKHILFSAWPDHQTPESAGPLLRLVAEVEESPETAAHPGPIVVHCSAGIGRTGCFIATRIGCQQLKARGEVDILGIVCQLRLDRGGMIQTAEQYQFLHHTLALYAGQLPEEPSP
Format: functional.

The target in experiment [4] is T1, Tyrosine-protein phosphatase non-receptor type 22. It is filed as functional. This is another data set of the same source.
Experiment [5] deals with T3, Nucleotide-binding oligomerization domain-containing protein 1 (Homo sapiens, UniProt Q9Y239).
T3 sequence (Q9Y239 whole entry): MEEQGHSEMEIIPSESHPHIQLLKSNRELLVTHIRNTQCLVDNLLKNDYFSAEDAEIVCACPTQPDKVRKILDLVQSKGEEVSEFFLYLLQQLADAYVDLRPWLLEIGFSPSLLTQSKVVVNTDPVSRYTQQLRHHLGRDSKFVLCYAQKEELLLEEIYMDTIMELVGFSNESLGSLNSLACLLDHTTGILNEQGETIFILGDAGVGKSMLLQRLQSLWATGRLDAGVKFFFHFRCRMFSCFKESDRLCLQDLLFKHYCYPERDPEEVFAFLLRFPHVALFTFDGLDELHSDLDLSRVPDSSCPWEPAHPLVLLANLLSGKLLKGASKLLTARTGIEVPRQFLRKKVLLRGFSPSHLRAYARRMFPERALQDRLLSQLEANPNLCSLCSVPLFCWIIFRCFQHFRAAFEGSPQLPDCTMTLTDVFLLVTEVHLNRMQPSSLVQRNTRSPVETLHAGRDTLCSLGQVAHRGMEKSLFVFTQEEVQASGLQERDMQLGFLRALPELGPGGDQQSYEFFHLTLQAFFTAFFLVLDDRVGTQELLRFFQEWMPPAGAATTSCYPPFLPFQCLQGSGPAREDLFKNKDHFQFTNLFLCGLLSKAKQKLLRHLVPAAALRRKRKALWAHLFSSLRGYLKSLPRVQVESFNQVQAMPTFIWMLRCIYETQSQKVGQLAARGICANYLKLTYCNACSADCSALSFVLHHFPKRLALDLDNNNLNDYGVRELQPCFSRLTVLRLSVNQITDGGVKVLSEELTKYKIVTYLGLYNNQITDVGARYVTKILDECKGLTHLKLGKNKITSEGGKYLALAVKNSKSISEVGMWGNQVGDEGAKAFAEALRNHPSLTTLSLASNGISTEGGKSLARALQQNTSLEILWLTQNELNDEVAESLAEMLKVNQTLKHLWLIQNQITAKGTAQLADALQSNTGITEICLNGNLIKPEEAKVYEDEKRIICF
Description: SAR analysis of compounds that inhibit NOD1 - Set 3. [Related pubchem assays (depositor defined):AID1566, AID1575, AID1578, AID1849, AID1852, AID2333, AID2335, AID2466]. Format: functional.

Experiment [6] addresses T4, Nucleotide-binding oligomerization domain-containing protein 2 (Homo sapiens, UniProt Q9HC29). Description: NOD2 signaling inhibitors, analog potency, SAR follow-up, cell-based, set 3 (AID 2799). It is filed as functional.
Another experiment concerns the target Tumor necrosis factor (Homo sapiens, UniProt P01375). Description: TNFa-triggered NF-kB activation inhibitors, SAR follow-up, cell-based, set 3 (AID 2801). Format: functional.
The test system of experiment [7] is HEK293. Description: SAR analysis of compounds that are cytotoxic to HEK293 - Set 3. [Related pubchem assays (depositor defined):AID1575, AID1578, AID1848, AID1849, AID2001, AID2333, AID2334, AID2335, AID2337, AID2469]. It is filed as functional, cell-based. To be noted: Homo sapiens.
The test system of experiment [8] is HEK293. Description: SAR analysis of compounds that are cytotoxic to HEK293 - Set 2. [Related pubchem assays (depositor defined):AID1575, AID1578, AID1849, AID2001, AID2333, AID2334, AID2335, AID2337, AID2800]. Format: functional, cell-based. Conditions: Homo sapiens.
Experiment [9] addresses T5, Interleukin-8 (Homo sapiens, UniProt P10145).
T5 sequence (P10145 whole entry): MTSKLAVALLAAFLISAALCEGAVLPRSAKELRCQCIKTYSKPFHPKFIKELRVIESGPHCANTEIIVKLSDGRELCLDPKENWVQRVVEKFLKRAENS
Description: SAR analysis of GM-Tri-DAP induced IL-8 secretion in MCF-7/NOD1 cells - Set 2. [Related pubchem assays (depositor defined):AID1575, AID1578, AID2333]. Format: functional, cell-based.

Experiment [10] has as its target T3, Nucleotide-binding oligomerization domain-containing protein 1. Description: SAR analysis of compounds that inhibit NOD1 - Set 2. [Related pubchem assays (depositor defined):AID1566, AID1575, AID1578, AID1849, AID1852, AID2333, AID2335, AID2798]. Format: functional.
The target of experiment [11] is T4, Nucleotide-binding oligomerization domain-containing protein 2. Description: NOD2 inhibitors, SAR follow-up, set 2 (AID 2475). It is filed as functional.
For experiment [12], the target named is T5, Interleukin-8. Description: SAR analysis of Tumor necrosis factor alpha (TNF-alpha) induced IL-8 secretion in MCF-7/NOD1 cells - Set 2. [Related pubchem assays (depositor defined):AID1575, AID2250, AID2260]. Format: functional, cell-based.
Experiment [13] addresses T3, Nucleotide-binding oligomerization domain-containing protein 1. Description: SAR analysis of NF-kappaB dependent luciferase using DAP as an inducer - Set 2. [Related pubchem assays (depositor defined):AID1566, AID1575, AID1578, AID1579, AID1849, AID1852, AID2264]. Format: functional.

The source made the active and inactive calls.

T4 sequence (Q9HC29 whole entry, the tested form may be a part): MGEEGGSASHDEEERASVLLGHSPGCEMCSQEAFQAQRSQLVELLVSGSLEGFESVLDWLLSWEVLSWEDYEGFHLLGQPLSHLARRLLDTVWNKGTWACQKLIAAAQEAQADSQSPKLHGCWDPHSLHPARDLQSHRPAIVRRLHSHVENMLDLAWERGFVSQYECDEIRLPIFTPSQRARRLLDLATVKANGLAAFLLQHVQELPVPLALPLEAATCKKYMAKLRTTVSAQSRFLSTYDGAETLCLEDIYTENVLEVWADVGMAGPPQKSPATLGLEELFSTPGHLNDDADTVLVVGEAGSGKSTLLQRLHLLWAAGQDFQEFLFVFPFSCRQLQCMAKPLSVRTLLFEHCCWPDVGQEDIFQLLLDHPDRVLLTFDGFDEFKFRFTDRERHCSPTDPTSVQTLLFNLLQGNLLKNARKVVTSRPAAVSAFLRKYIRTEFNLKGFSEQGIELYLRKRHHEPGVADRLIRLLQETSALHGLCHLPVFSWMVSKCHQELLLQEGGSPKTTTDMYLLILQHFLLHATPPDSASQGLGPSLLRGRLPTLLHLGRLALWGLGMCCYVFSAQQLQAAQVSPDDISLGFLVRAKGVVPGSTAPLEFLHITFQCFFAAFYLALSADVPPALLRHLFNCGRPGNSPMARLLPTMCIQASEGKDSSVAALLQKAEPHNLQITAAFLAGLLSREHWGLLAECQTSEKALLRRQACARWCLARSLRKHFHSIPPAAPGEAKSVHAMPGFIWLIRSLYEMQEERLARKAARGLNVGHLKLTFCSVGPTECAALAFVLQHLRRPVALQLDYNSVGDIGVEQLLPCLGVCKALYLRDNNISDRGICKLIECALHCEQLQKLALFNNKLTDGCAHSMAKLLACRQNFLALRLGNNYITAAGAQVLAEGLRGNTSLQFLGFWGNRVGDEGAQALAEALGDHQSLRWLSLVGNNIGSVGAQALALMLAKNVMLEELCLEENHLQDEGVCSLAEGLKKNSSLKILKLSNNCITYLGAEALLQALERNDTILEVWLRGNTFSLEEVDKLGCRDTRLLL
Chain of Lysine-specific demethylase 4C (Q9H3R0 whole entry): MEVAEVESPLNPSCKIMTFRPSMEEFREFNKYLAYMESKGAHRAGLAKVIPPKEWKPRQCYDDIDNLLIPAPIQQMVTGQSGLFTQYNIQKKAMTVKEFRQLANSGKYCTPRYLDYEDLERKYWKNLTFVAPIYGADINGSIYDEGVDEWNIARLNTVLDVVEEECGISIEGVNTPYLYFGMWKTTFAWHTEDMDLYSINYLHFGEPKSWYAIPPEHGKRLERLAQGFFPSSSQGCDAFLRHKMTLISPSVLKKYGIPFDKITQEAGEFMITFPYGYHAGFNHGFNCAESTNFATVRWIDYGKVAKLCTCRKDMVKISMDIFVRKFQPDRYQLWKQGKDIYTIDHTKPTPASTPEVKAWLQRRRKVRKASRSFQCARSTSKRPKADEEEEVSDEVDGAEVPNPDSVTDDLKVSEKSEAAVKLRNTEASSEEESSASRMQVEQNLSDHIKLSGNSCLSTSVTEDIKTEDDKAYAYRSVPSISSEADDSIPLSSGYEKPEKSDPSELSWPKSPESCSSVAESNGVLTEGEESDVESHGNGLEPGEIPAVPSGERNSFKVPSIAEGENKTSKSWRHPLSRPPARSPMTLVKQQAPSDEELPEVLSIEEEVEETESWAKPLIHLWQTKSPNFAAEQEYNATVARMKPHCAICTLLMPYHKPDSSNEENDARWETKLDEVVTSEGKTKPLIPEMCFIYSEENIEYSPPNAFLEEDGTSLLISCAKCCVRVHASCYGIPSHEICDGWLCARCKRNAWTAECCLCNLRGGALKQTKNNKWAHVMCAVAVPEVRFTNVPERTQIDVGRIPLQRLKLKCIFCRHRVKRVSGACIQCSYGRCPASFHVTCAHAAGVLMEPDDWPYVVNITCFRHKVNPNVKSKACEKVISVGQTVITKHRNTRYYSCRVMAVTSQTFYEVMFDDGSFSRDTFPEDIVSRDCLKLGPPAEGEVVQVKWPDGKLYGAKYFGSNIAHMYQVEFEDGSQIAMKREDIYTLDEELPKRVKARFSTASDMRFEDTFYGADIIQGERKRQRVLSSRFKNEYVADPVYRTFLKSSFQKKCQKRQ
Chain of Tumor necrosis factor (P01375 whole entry): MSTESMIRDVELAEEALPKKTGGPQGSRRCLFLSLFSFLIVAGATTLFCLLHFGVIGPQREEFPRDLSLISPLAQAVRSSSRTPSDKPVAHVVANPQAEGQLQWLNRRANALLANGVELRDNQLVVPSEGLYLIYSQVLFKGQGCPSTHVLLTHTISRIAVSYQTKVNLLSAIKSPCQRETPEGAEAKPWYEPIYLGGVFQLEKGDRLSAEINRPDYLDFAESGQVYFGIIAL

One may read the AC50 as the concentration at which the activity in the assay is half-maximal. Turning to `Nc1c(O)nc(O)nc1C(=O)OCC(=O)Nc1ccc(Cl)cc1[N+](=O)[O-]`, the AC50 in experiment [1] is 8.98 µM (active).

In general, IC50 refers to the point on the concentration scale where inhibition reaches its midpoint. In the case of `Cc1cccc(-n2cc(CN3CCN(C(=O)c4nc[nH]n4)CC3)c(-c3cccc(F)c3)n2)c1`, the IC50 in [2], in [3] and in [4] was > 79.4 µM (inactive) each time.

With `COCCn1c(SCCCc2ccccc2)nc2c1c(=O)[nH]c(=O)n2C`, the IC50 in experiment [5] was > 20 µM (inactive); in experiment [6], > 20 µM (inactive); on Tumor necrosis factor it was > 20 µM (inactive); in the experiment with HEK293 [7], > 20 µM (inactive); in the experiment with HEK293 [8], > 20 µM (inactive); on Interleukin-8 [9], > 25 µM (inactive). In addition, the IC50 was > 20 µM (inactive) in [10], > 20 µM (inactive) in [11], > 25 µM (inactive) on Interleukin-8 [12] and > 25 µM (inactive) in experiment [13].

For the origin of these results see ChEMBL document CHEMBL1201862, “PubChem BioAssay data set” (2004).
